From paper PMC6943619, “Synthesis and Pharmacological Evaluation of Hybrids Targeting Opioid and Neurokinin Receptors” (Molecules, 2019)
Like-named read-outs stand apart in the source and are kept apart here. Where a SMILES comes first, the peptide text is derived from it. Bridges are numbered along the chain shown (N, C = ends). [ ]: non-standard residue; d: D form. Nle = CCCC[C@H](N)C(=O)O

Columns and labels:
[1] = target: T1, human opioid receptor KOR (Homo sapiens, UniProt P41145); experiment: Radioligand binding assay, displacement of [3H]U-69593; conditions: displacement of [3H]U-69593 from membranes of CHO cells transfected with human KOR, 50 mM Tris/HCl pH 7.4, 0.5% BSA, peptidase inhibitors, 2 h at 25 °C, mean ± SEM, n ≥ 3
T1 construct: purchased PerkinElmer (Krakow, Poland); host or cells: CHO cell membranes
T1 sequence (P41145 whole entry): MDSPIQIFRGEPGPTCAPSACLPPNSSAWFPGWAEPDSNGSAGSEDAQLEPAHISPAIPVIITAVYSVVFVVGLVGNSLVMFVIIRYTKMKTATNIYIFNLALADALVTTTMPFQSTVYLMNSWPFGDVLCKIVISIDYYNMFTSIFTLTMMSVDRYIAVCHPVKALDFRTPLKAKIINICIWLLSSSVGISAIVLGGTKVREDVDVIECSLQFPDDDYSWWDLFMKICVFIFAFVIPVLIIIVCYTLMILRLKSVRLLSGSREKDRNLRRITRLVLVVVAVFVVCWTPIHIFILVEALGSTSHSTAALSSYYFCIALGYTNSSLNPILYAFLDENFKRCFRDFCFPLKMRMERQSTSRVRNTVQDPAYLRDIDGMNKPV
Experimental: A radioligand binding assay was performed to determine the opioid receptor (OR) binding affinities of the novel analogs using commercially available membranes of Chinese hamster ovary cells (CHO) transfected with human recombinant ORs. [^3H]DAMGO, [^3H]deltorphin-2, and [^3H]U-69593 were used as the radioligands for MOR, DOR, and KOR, respectively. Tyr-[D-Lys-Phe-Phe-Asp]NH2 (1) was used as a reference opioid compound. […] None of them acquired significant DOR affinity.
(§1) To determine the affinity of peptide analogs to respective receptors, competition binding experiments were performed, as described in detail elsewhere.
Commercial membranes of CHO cells stably expressing either human ORs or NK1 receptor were used. [^3H]DAMGO, [^3H]deltorphin-2, and [^3H]U-69593 were employed as the competing radioligands for MOR, DOR, and KOR, respectively, while [^3H][Sar^9, Met(O2)^11]SP was utilized for the NK1 receptor. Membranes were incubated in a 0.5 mL volume of 50 mM Tris/HCl (pH = 7.4), 0.5% bovine serum albumin (BSA), with a number of peptidase inhibitors (bacitracin, bestatin, captopril) and various concentrations of radioligands for 2 h at 25 °C. Nonspecific binding was assessed in the presence of […] naloxone for ORs or SP for NK1 receptor.
The pharmacological terminology adopted in this paper is consistent with International Union of Basic and Clinical Pharmacology (IUPHAR) recommendations. Concentration–response curves were analyzed by nonlinear regression using Graph Pad Prism 6.0 (La Jolla, CA, USA). […]. […] Concentration–response curves were fitted with the four-parameter logistic nonlinear regression model (1) Effect=baseline+Emax−baseline/1+10^logEC50−X·n where X is the agonist concentration and n is the Hill coefficient. Ligand efficacy was expressed as intrinsic activity (α) calculated as a ratio of the peptide Emax to the Emax of the standard agonist (Supplementary Materials, Figure S7). […]. All statistical analyses were performed using Graph Pad Prism 6.0 (La Jolla, CA, USA). Differences between groups were analyzed with one-way ANOVA and a post hoc multiple comparison by the Student–Newman–Keuls test. A probability level of 0.05 or smaller was used to indicate statistical significance.

[2] = system: mice; experiment: Tolerance development, writhing test after repeated injections; assay type: in vivo; conditions: 5 mg/kg i.p. once daily for seven days, writhing test on Day 7, n = 10
Experimental: To examine whether mice developed tolerance to hybrids 2 and 4, these analogs and analog 1 for comparison were injected once daily (5 mg/kg) for seven consecutive days. After repeated administration, the antinociceptive effect was determined on Day 7, performing the writhing test as above.
Figure 4 A comparison of the antinociceptive effect of single (Day 1) and repeated (Day 7) i.p. injections of opioid analog 1 and hybrids 2 and 4 at the dose of 5 mg/kg in the writhing test in mice. The data represent mean ± SEM, n = 10. Statistical significance was assessed using one-way ANOVA and a post hoc multiple comparison by the Student–Newman–Keuls test. *** p < 0.001, as compared to control.
Peptides were administered at the highest dose (5 mg/kg) used before in the writhing test. In the experiment, four new groups of animals (10 mice per group, housed in one cage) underwent repeated injections (i.p.) of saline or the tested compounds (Days 1–7). On Day 7, following saline or peptide administration, the writhing test was performed, as described above. The antinociceptive activity of a compound was compared to the activity obtained after a single injection of this compound in the corresponding dose (5 mg/kg).

[3] = target: T2, human opioid receptor DOR (Homo sapiens, UniProt P41143); experiment: Radioligand binding assay, displacement of [3H]deltorphin-2; conditions: displacement of [3H]deltorphin-2 from membranes of CHO cells transfected with human DOR, 50 mM Tris/HCl pH 7.4, 0.5% BSA, peptidase inhibitors, 2 h at 25 °C, mean ± SEM, n ≥ 3
T2 construct: purchased PerkinElmer (Krakow, Poland); host or cells: CHO cell membranes
T2 sequence (P41143 whole entry): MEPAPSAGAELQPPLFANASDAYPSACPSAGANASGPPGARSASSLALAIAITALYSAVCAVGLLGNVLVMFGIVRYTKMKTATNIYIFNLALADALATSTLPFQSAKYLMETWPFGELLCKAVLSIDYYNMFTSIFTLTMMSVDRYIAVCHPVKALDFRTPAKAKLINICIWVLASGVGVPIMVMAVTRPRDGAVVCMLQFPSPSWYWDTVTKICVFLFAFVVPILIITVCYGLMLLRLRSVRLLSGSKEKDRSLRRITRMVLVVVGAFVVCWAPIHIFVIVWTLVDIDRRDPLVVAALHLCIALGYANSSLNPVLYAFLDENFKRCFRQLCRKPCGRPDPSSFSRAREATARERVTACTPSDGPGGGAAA
Experimental: A radioligand binding assay was performed to determine the opioid receptor (OR) binding affinities of the novel analogs using commercially available membranes of Chinese hamster ovary cells (CHO) transfected with human recombinant ORs. […] Tyr-[D-Lys-Phe-Phe-Asp]NH2 (1) was used as a reference opioid compound.
as §1
(§2) Commercial membranes of CHO cells stably expressing either human ORs or NK1 receptor were used. […] Membranes were incubated in a 0.5 mL volume of 50 mM Tris/HCl (pH = 7.4), 0.5% bovine serum albumin (BSA), with a number of peptidase inhibitors (bacitracin, bestatin, captopril) and various concentrations of radioligands for 2 h at 25 °C.
(§3) The pharmacological terminology adopted in this paper is consistent with International Union of Basic and Clinical Pharmacology (IUPHAR) recommendations. Concentration–response curves were analyzed by nonlinear regression using Graph Pad Prism 6.0 (La Jolla, CA, USA). […] Concentration–response curves were fitted with the four-parameter logistic nonlinear regression model (1) Effect=baseline+Emax−baseline/1+10^logEC50−X·n where X is the agonist concentration and n is the Hill coefficient. Ligand efficacy was expressed as intrinsic activity (α) calculated as a ratio of the peptide Emax to the Emax of the standard agonist (Supplementary Materials, Figure S7). […] All statistical analyses were performed using Graph Pad Prism 6.0 (La Jolla, CA, USA). Differences between groups were analyzed with one-way ANOVA and a post hoc multiple comparison by the Student–Newman–Keuls test. A probability level of 0.05 or smaller was used to indicate statistical significance.

[4] = target: human NK1 (Homo sapiens, UniProt P25103); experiment: Radioligand binding assay, displacement of [3H][Sar9, Met(O2)11]SP; set-up: purchased PerkinElmer (Krakow, Poland); host or cells: CHO cell membranes; conditions: displacement of [3H][Sar9, Met(O2)11]SP from membranes of CHO cells transfected with human NK1 receptor; 50 mM Tris/HCl pH 7.4, 0.5% BSA, peptidase inhibitors, 2 h at 25 °C; mean ± SEM, n ≥ 3; SEM
Chain of human NK1 (P25103 whole entry): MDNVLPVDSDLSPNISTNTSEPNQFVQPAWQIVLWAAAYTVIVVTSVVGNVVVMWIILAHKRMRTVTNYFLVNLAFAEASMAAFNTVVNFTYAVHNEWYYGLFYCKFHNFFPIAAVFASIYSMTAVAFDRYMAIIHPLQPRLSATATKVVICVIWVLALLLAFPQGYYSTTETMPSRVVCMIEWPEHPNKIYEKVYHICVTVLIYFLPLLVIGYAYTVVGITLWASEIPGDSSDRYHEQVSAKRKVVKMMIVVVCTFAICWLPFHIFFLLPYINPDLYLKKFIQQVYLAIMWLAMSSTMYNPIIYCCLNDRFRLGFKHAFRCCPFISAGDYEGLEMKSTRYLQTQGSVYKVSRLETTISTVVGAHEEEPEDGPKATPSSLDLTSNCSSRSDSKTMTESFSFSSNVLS
Experimental: The binding assay was also used to examine the affinity of the synthesized hybrids for NK1 in commercial membranes of CHO cells stably expressing human NK1.
as §1, §2, §3

[5] = target: T3, human KOR (Homo sapiens, UniProt P41145); experiment: Calcium mobilization functional assay, agonist mode; assay type: cell-based; conditions: for KOR α ± SEM: efficacy (intrinsic activity), Emax relative to dynorphin A, mean ± SEM
T3 construct: expressed in transfected cells; host or cells: CHO cells (University of Ferrara), co-expressing Gαqi5
T3 sequence (P41145 whole entry): as the sequence (P41145 whole entry) above

[6] = target: T4, DOR (Homo sapiens, UniProt P41143); experiment: as above; assay type: cell-based; conditions: CHO cells co-expressing DOR and GαqG66Di5, n = 5; for DOR pEC50 (CL95%): Fluo-4 AM calcium signal; for DOR α ± SEM: efficacy (intrinsic activity), Emax relative to DPDPE, mean ± SEM
T4 construct: expressed in transfected cells; host or cells: CHO cells (University of Ferrara), co-expressing GαqG66Di5
T4 sequence (P41143 whole entry): as the sequence (P41143 whole entry) above

[7] = CHO cells co-expressing human KOR and Gαqi5, n = 5

| SMILES | Ki [1] [nM] | tolerance development (analgesic activity on Day 7 versus Day 1) [2] | Ki [3] [nM] | Ki [4] [nM] | EC50 [5] [nM] | KOR α ± SEM [5, 7] | DOR pEC50 (CL95%) [6] | DOR α ± SEM [6] | EC50 ([5]; CHO cells co-expressing human KOR and Gαqi5, Fluo-4 AM calcium signal, n = 5, read-out: KOR pEC50 (CL95%) (converted)) [nM] |
| --- | --- | --- | --- | --- | --- | --- | --- | --- | --- |
| CSCC[C@H](NC(=O)[C@H](CC(C)C)NC(=O)CNC(=O)[C@H](Cc1ccccc1)NC(=O)[C@H](Cc1ccccc1)NC(=O)[C@H](CCC(N)=O)NC(=O)[C@@H]1CC(=O)NCCCC[C@@H](NC(=O)[C@@H](N)Cc2ccc(O)cc2)C(=O)N[C@@H](Cc2ccccc2)C(=O)N[C@@H](Cc2ccccc2)C(=O)N1)C(N)=O [compound 4, Tyr-[D-Lys-Phe-Phe-Asp]-Gln-Phe-Phe-Gly-Leu-Met-NH2] (H-Y[dK]FFDQFFGLM-NH2; lactam 2-5) | 10.8 ± 0.85 | did not cause tolerance development | 225 ± 14 | 15.6 ± 1.23 | 14.1 | 0.92 ± 0.05 | Crc incomplete | Crc incomplete |  |
| CCCC[C@H](NC(=O)[C@H](CC(C)C)NC(=O)[C@@H](Cc1c[nH]c2ccccc12)NC(=O)[C@H](Cc1ccccc1)NC(=O)[C@@H](Cc1c[nH]c2ccccc12)NC(=O)[C@H](CC(N)=O)NC(=O)[C@@H]1CC(=O)NCCCC[C@@H](NC(=O)[C@@H](N)Cc2ccc(O)cc2)C(=O)N[C@@H](Cc2ccccc2)C(=O)N[C@@H](Cc2ccccc2)C(=O)N1)C(N)=O [compound 2, Tyr-[D-Lys-Phe-Phe-Asp]-Asn-D-Trp-Phe-D-Trp-Leu-Nle-NH2] (H-Y[dK]FFDN[dW]F[dW]L[Nle]-NH2; lactam 2-5) | 7.46 ± 0.6 | did not cause tolerance development | 202 ± 2.5 | 10.5 ± 0.6 |  | 0.99 ± 0.05 | Crc incomplete | Crc incomplete | 9.77 |
